According to patent US20150202179A1, “FATTY ACID DERIVATIVES FOR USE IN A METHOD OF TREATING DEPRESSION AND ASSOCIATED CONDITIONS” (YISSUM RESEARCH DEVELOPMENT COMPANY OF THE HEBREW …, priority 2012, published 2015):
“Also recorded” adds a separate entry of the source.

Legend:
[1] = system: serotonin (5HT) levels; experiment: Serotonin (5HT) determination in brain tissue by HPLC with electrochemical detection; assay type: in vivo, mice; settings: for 5HT: ng/g wet tissue +/− SEM; for 5HT levels in the hippocampus vs. control / 5HT levels in the hypothalamus vs. control: result in words
Procedure: (§1) Solution of DHBA as internal standard in the concentration of: 1 μg/ml in 0.1M perchloric acid, were prepared. Standard solutions of NE and 5HT in the concentration of 1-0.1 μg/ml in 0.1M perchloric acid were prepared.
(§2) Tissues (hypothalamus and hippocampus) obtained from 6-8 mice were dissected on ice surface and kept at −80 C. Hypothalamus (HT) or hippocampus (HC) from 1 mice were weighted (weight of HT −10-20 mg, HC 30-40 mg) and placed in eppendorf micro-centrifuge tube, 1.5 ml. To each tube was added 120-160 μl of ice cold solution of Perchloric acid and DHBA, homogenized in ice bath on Sonics vibra cell, 3×20 sec., 0.4 watts and centrifuged at 14,000×g at 4° C. 10 min. Supernatant gained was stored in ice before analysis.
(§3) The HPLC system consisted of Jasco PU-980 pump, Jasco AS-950-10 autosampler cooled at 4° C., H3 ODS-125A 3 μm 125 mm×4.6 mm i.d. analytical column (Hichrom, UK) were used. Electrochemical detector Coulochem ESA 5100A with analytical cell model 5011 was used for control detector voltage and record the current. Working electrode was set at potential +350 mV. Control and data collection/processing were handled through Borwin chromatography software.
(§4) The mobile phase composition: A stock buffer was prepared as follows: 20 mM sodium dihydrogenorthophosphate, EDTA 3 mg/l, 1-heptanesulfonic acid 1 g/l were dissolved in 1 liter deionized distilled water and buffered to pH 3.7 using concentrated phosphoric acid. To prepare the mobile phase buffer was mixed with acetonitrile (Baker HPLC analyzed) in the ratio 85:15 (v/v), filtered through a 0.2 μm membrane filter and degassed under vacuum after mixing. Mobile phase flow rate 1 ml/min. Injection volume 20 μl, retention time for DHBA 4.2 min., norepinephrine—3.1 min., 5HT 8.6 min. For calibration curve 1 ug/ml solution of DHBA together with 1.0-0.1 μg/ml solutions of 5HT and NE were used. The ratio between 5HT or NE and DHBA used to calculate the level of 5HT and NE in the sample. Date are given in ng/g wet tissue +/−SEM.

[2] = system: Norepinephrine (NE) levels; experiment: Norepinephrine (NE) determination in brain tissue by HPLC with electrochemical detection; assay type: in vivo, mice; settings: for NE: ng/g wet tissue +/− SEM; for norepinephrine levels in the hippocampus vs. control / norepinephrine levels in the hypothalamus vs. control: result in words
Procedure: as §1, §2, §3, §4

[3] = Weight and food consumption in Sabra mice; assay type: in vivo
Procedure: 140 Female Sabra Mice 12 weeks old are divided to […] 10 mice in each group with equal weight. Mice are administered I.P. with either saline or 1 mg/kg Fluoxetine (PROZAC), compound 1, 4, 5, 7, 10, 11, 12, 13, 14, 15, 19, 26 for a 4 weeks period. On day 30 and on, mice were tested by the following behavioral tests. […]

[4] = Weight and food consumption in OB/OB mice which lack the leptin gene; assay type: in vivo
Description: Thus the compounds of the invention can be used to treat conditions that are mediated by the enhancement of leptin levels. In obesity there is high leptin level however the leptin receptors are not responding. High CNS leptin level has anti-depression effect however, if there is tolerance there is no anti depression effect.

[5] = Tail Suspension Test, separated BALB/c mice (model for depression); assay type: in vivo; settings: compounds 1 mg/kg i.p., imipramine 10 mg/kg i.p.; day 7; in relation to vehicle
Description: Tail suspension test (TST): Animals are suspended upside down by adhesive tape placed 1 cm from the tail tip. The elevation of the animal is 50 cm from the nearest surface. […] Statistical analysis compares the magnitude of immobility (in seconds) between different treatment groups. In this test, antidepressants characteristically cause an increase of the time fraction spent by the animal as active at the expense of the inactivity period.
50, 2 month old female BALB/c mice were separated (each mouse in a different cage) for 9 days period (a model for depression). On days 7, 8, 9, 34-40 mice were administered with either vehicle or compounds X, 12 and 15 (1 mg/kg i.p.) or imipramine 10 mg/kg (anti-depressant) i.p. and tested in the Tail suspension test on day 7 of the experiment (10 mice per group).

[6] = Forced Swim Test (FST), separated BALB/c mice; assay type: in vivo; settings: compounds 1 mg/kg i.p., imipramine 10 mg/kg i.p.; day 8; in relation to vehicle
Procedure: Forced swim test (FST): The animal is placed in a circular, transparent, plexiglass tank measuring 21 cm in diameter and 46 cm in height containing water 15 cm high, maintained at 23-25° C. […] Also measured is the latency period, the time elapsing, for each animal from immersion in the water tank until the first occurrence of immobility. Since climbing activity is minimal in mice, […].
(§5) 50, 2 month old female BALB/c mice, 10 mice per group, on ad libitum diet were separated (each mouse in a different cage) for 9 days (Separation Stress, a model for depression). On the 7, 8, 9, 34-40 days mice were administered with either vehicle or compounds x, 12 and 15 (1 mg/kg i.p.) or imipramine 10 mg/kg (antidepressant) i.p. and tested in the forced swim test (FST) on day 8.

[7] = Novelty Suppressed Feeding Test (NSFT), separated BALB/c mice; assay type: in vivo; settings: compounds 1 mg/kg i.p., day 9
Procedure: (§6) Novelty suppressed feeding test (NSFT): After the last treatment injection, all food is removed from the cage for 24 hours (water available ad libitum). At the end of this time, the animal is introduced into a 50×50×20 (height) cm wooden arena the floor of which is marked with equal rectangles of 10×10 cm. A pellet of food is placed on an elevated surface in the center of the arena. The time elapsing from the introduction of the animal into the arena until it commences eating (latency to feed) is recorded. The animal is removed from the arena immediately after it begins to eat or after not doing so for 5 min. During the test, the number of lines crossed by the animal is counted as a measure of motor activity, and calibrated for 5 min if the animal started eating before that. After the test, the animal is immediately transferred to its home cage and left to consume a previously weighed amount of food for 10 minutes. On completion of this period the food is weighed again to calculate the home cage food consumption.
as §5, with “34-40,” for “34-40”, “Novel Suppressed Feeding Test” for “the forced swim test (FST)”, “9.” for “8.”
as §6, with “FIGS. 9A-9C show the results of the NSFT. […]” for “Novelty suppressed feeding test (NSFT):”, “hours.” for “hours (water available ad libitum).”, “into” for “into a 50×50×20 (height) cm wooden arena”, “open field test.” for “floor of which is marked with equal rectangles of 10×10 cm.”, “to find” for “elapsing from”, “food was” for “introduction of the animal into the arena until it commences eating (latency to feed) is”

[8] = Eight Arm Maze Test, separated BALB/c mice; assay type: in vivo; settings: compounds 1 mg/kg i.p., imipramine 10 mg/kg i.p.; day 34-38; in relation to vehicle (p<0.05)
Procedure: 2 month old female BALB/c mice 10 mice per group were separated (each mouse in a different cage) for 9 days (a model for depression). On days 7, 8, 9, 34-40 days mice were administered with either vehicle or compounds X, 12 and 15 (1 mg/kg i.p.) or imipramine 10 mg/kg (anti-depressant) i.p. and tested in the Eight Arm Maze from day 34-38.

[9] = Neurological score measured by the NSS method; assay type: in vivo, BALB/c mice; settings: 1 mg/kg i.p.

- neurological score (NSS method) [9]: did not affect neurological score
Structure (SMILES): CCCCCCCC/C=C\CCCCCCCCNC(=O)N[C@H](CO)C(C)C [Compound 15, Oleyl-amine-carbonyl-L-valinol]
- 5HT ([1]; Hippocampus): 396.7 ± 21 ng/g
- 5HT ([1]; Hypothalamus): 853 ± 78.3 ng/g
- 5HT levels in the hippocampus vs. control [1]: increased significantly
- 5HT levels in the hippocampus vs. control ([1]; listed as compound 15): significantly enhanced
- 5HT levels in the hypothalamus vs. control [1]: increased significantly
- 5HT levels in the hypothalamus vs. control ([1]; listed as compound 15): significantly enhanced
- NE ([2]; Hippocampus): 373.7 ± 48.1 ng/g
- NE ([2]; Hypothalamus): 1234.8 ± 59.8 ng/g
- norepinephrine levels in the hippocampus vs. control [2]: increase significantly
- norepinephrine levels in the hippocampus vs. control ([2]; listed as compound 15): significantly enhanced
- norepinephrine levels in the hypothalamus vs. control [2]: increased significantly
- norepinephrine levels in the hypothalamus vs. control ([2]; listed as compound 15): significantly enhanced
- food consumption [3]: significant decrease
- weight (weight loss) [3]: significant weight loss; also recorded: significant decrease
- food consumption [4]: did not change
- weight (weight loss) [4]: do not produce weight loss; also recorded: did not change
- activity in Tail Suspension Test [5]: significantly enhanced activity
- swimming activity in forced swim test [6]: significantly enhanced swimming activity
- food intake in NSFT ([7]; in relation to vehicle and more than imipramine 10 mg/kg): significantly enhanced food intake
- motor activity in NSFT ([7]; resembled imipramine 10 mg/kg): enhanced motor activity
- performance in the Eight Arm Maze [8]: significantly improved performance
